Calls of active or inactive are those of the source. No cut-off for these calls is given here.
What was measured:
[1] = Permeability of the compound; format: ADME; details: not told; read-out: permeability
[2] = target: Transient receptor potential cation channel subfamily V member 4 (Homo sapiens, UniProt Q9HBA0); test: Antagonist activity at human TRPV4
[3] = Chromatographic hydrophobicity index, log D of the compound; format: physicochemical
[4] = target: T1, Short transient receptor potential channel 4 (Homo sapiens) (UniProt Q9UBN4); test: Antagonist activity at human TRPC4 at <= 30 uM; details: dose microM <=30
T1 sequence (whole entry): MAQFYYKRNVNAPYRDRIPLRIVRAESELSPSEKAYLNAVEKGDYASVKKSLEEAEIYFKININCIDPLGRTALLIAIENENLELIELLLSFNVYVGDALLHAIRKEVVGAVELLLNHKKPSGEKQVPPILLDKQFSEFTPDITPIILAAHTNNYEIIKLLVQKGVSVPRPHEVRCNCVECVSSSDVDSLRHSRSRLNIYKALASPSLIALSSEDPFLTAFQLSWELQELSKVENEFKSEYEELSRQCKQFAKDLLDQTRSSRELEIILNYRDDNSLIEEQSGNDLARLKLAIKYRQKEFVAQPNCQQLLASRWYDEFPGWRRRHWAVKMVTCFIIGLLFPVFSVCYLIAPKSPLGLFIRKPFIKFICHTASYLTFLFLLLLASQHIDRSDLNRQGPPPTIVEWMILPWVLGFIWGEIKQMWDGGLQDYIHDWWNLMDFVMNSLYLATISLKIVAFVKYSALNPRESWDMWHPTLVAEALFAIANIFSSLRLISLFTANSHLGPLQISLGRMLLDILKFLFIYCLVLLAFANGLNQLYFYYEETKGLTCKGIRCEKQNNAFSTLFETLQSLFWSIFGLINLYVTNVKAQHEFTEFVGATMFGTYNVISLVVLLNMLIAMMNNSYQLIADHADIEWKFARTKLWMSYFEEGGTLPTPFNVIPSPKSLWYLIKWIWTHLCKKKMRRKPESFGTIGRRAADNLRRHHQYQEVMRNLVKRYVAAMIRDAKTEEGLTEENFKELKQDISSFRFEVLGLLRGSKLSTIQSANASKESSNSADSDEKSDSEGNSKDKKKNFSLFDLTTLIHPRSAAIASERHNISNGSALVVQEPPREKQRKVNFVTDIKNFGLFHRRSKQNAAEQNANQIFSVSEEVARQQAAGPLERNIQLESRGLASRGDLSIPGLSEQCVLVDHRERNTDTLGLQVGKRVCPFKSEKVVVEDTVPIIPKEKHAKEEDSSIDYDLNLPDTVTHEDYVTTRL

[5] = target: T2, Short transient receptor potential channel 5 (Homo sapiens) (UniProt Q9UL62); test: Antagonist activity at human TRPC5 at <= 30 uM; details: dose microM <=30
T2 sequence (whole entry): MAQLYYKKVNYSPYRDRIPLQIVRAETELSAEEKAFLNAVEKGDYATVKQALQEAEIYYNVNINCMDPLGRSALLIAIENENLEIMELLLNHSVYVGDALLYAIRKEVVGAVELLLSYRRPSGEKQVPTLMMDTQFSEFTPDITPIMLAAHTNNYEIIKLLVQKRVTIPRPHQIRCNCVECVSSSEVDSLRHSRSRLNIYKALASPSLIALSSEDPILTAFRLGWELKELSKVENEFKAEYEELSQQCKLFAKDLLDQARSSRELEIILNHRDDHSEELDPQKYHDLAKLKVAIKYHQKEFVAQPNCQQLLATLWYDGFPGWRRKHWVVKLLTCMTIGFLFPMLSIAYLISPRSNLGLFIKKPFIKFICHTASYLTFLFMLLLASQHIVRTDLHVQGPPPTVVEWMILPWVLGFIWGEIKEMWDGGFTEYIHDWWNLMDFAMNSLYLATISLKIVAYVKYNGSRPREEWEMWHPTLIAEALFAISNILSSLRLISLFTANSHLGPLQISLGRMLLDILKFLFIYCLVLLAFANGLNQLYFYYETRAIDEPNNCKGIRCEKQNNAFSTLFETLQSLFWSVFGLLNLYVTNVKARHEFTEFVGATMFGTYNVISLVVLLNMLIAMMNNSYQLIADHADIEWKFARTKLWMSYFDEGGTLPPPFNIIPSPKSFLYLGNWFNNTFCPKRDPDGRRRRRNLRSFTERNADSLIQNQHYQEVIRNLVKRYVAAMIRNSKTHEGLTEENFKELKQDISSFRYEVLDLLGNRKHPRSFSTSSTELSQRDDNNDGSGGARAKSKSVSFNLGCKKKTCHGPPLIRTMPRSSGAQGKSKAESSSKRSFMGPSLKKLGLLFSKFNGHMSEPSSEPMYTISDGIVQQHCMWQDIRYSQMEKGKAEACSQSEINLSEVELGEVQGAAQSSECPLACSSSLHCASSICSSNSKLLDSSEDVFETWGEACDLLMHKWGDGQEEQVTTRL

[6] = target: Cytochrome P450 3A4 (Homo sapiens, UniProt P08684); test: Inhibition of CYP3A4 (unknown origin) at <= 10 uM; format: ADME
[7] = target: Transient receptor potential cation channel subfamily M member 8 (Homo sapiens) (UniProt Q7Z2W7); test: Antagonist activity at human TRPM8 at <= 30 uM; details: dose microM <=30
[8] = target: Transient receptor potential cation channel subfamily M member 2 (Homo sapiens) (UniProt O94759); test: Antagonist activity at human TRPM2 at <= 30 uM; details: dose microM <=30
[9] = target: Voltage-gated inwardly rectifying potassium channel KCNH2 (Homo sapiens, UniProt Q12809); test: Inhibition of human ERG at <= 10 uM
[10] = target: T3, Short transient receptor potential channel 3 (Homo sapiens) (UniProt Q13507); test: Antagonist activity at human TRPC3 at <= 30 uM; details: dose microM <=30
T3 sequence (whole entry): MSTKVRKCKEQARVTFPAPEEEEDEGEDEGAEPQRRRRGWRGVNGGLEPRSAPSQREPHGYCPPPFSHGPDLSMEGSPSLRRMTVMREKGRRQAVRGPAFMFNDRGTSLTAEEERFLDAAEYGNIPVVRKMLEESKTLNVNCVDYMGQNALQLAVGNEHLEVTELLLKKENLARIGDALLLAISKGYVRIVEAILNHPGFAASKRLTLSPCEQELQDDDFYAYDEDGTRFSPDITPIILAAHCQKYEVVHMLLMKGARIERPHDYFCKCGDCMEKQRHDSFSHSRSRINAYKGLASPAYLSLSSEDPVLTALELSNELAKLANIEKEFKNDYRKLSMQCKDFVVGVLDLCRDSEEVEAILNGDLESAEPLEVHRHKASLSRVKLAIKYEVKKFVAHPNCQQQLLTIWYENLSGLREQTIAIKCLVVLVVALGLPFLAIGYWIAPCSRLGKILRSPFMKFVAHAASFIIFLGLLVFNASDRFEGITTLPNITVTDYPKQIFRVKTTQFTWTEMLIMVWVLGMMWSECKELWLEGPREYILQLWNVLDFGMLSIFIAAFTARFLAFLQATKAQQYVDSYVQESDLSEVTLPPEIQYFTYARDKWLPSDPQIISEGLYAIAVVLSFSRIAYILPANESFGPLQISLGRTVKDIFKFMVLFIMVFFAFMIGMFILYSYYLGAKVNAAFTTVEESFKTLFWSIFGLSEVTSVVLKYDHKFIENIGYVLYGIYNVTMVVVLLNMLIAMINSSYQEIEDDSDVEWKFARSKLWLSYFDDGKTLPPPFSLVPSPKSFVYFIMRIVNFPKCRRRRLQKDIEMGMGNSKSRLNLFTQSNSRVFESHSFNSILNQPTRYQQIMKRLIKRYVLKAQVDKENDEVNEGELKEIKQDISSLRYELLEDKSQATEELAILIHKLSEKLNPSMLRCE

[11] = target: T4, Short transient receptor potential channel 6 (Homo sapiens) (UniProt Q9Y210); test: Antagonist activity at human TRPC6 at <= 30 uM; details: dose microM <=30
T4 sequence (whole entry): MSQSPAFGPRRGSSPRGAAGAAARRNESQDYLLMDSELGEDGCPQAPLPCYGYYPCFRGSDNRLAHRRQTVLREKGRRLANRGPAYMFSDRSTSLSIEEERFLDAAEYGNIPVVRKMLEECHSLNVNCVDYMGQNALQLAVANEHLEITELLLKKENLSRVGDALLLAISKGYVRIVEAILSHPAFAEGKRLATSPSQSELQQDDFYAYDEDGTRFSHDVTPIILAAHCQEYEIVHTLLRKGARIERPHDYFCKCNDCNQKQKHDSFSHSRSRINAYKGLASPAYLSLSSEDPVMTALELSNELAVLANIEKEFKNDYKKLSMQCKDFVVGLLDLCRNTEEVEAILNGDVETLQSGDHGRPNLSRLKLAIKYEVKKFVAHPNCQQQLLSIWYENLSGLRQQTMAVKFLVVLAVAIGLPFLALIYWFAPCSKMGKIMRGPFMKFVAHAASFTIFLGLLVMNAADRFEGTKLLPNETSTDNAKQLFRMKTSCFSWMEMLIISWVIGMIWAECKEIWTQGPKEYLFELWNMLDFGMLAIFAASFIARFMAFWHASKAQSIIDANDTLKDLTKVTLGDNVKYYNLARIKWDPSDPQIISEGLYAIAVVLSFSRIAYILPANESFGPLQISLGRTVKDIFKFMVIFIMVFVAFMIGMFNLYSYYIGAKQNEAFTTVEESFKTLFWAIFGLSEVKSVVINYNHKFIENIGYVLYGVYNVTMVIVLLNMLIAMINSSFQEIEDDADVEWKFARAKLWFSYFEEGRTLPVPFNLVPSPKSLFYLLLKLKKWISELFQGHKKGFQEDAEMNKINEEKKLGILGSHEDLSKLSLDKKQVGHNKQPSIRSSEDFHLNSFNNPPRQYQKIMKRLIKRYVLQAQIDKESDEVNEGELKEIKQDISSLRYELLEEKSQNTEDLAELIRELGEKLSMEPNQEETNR

[12] = target: Transient receptor potential cation channel subfamily V member 1 (Homo sapiens) (UniProt Q8NER1); test: Antagonist activity at human TRPV1 at <= 30 uM; details: dose microM <=30
[13] = target: Transient receptor potential cation channel subfamily A member 1 (Homo sapiens) (UniProt O75762); test: Antagonist activity at human TRPA1 at <= 30 uM; details: dose microM <=30
[14] = target: Transient receptor potential cation channel subfamily M member 4 (Homo sapiens) (UniProt Q8TD43); test: Antagonist activity at human TRPM4 at <= 30 uM; details: dose microM <=30
Transient receptor potential cation channel subfamily M member 4 (Homo sapiens), sequence (Q8TD43 whole entry): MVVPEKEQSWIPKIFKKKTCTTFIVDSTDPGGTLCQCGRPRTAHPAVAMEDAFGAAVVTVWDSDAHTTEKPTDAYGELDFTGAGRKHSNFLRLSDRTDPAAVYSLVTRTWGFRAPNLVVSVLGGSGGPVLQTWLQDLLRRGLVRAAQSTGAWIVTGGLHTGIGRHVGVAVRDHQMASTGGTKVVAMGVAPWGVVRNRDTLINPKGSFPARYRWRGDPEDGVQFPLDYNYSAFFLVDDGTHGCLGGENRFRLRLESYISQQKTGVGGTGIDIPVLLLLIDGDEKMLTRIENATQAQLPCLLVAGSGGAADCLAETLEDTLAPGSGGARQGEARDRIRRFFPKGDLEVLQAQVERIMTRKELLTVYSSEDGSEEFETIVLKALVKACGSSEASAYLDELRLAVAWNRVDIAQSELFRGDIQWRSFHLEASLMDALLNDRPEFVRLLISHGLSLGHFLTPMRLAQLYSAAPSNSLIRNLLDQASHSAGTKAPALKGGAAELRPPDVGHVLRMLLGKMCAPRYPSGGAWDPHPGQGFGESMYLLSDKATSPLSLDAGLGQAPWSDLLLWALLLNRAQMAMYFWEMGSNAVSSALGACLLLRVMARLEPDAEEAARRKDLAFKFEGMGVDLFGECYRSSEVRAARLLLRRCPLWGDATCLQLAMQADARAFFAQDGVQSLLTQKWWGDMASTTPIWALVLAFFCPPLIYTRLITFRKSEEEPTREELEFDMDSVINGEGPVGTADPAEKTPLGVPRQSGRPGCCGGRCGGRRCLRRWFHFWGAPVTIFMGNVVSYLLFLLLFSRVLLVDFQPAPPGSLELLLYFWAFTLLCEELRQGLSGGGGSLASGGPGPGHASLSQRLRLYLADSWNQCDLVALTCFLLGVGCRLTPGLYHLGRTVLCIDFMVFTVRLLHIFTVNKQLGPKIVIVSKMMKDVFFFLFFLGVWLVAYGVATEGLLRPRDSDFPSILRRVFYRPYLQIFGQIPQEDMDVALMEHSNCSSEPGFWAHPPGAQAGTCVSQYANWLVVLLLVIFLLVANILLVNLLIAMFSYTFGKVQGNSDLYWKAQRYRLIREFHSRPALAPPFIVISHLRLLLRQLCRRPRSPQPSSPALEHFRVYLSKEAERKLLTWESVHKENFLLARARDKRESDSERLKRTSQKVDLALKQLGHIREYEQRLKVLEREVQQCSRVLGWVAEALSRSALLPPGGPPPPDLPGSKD

Transient receptor potential cation channel subfamily V member 4, sequence (Q9HBA0 whole entry): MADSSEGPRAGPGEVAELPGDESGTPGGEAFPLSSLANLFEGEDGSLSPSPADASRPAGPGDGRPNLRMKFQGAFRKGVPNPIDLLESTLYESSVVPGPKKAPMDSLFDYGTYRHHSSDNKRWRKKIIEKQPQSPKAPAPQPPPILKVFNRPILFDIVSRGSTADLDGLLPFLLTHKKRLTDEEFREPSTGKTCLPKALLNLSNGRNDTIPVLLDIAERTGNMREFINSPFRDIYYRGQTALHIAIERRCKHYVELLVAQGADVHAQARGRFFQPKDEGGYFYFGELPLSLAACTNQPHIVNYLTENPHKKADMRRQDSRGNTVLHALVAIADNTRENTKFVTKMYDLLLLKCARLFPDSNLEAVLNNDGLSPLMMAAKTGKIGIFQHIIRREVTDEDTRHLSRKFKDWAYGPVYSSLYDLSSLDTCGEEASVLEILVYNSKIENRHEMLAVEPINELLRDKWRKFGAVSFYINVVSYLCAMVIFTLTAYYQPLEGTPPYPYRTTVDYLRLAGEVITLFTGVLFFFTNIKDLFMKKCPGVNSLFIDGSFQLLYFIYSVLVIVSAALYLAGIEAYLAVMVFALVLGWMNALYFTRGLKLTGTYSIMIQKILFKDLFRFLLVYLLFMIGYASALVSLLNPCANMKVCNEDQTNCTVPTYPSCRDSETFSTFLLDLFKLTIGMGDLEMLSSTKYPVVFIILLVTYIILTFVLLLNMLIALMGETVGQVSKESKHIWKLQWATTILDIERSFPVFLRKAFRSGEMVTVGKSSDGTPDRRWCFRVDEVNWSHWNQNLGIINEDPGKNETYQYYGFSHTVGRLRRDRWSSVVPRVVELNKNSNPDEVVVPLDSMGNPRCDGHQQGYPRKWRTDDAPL
Cytochrome P450 3A4, sequence (P08684 whole entry): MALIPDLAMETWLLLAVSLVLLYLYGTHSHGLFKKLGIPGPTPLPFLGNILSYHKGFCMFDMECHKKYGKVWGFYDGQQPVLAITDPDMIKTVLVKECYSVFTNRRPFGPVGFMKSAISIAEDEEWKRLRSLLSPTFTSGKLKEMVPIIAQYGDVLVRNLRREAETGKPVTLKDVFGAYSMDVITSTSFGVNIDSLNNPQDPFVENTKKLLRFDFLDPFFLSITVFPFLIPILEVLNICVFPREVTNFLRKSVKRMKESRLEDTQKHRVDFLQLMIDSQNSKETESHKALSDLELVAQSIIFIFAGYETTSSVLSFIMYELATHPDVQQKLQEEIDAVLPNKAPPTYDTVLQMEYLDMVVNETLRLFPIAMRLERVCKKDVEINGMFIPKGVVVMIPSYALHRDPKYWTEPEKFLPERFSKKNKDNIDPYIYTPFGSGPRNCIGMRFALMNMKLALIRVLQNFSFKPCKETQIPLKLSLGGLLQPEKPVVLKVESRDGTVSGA
Transient receptor potential cation channel subfamily A member 1 (Homo sapiens), sequence (O75762 whole entry): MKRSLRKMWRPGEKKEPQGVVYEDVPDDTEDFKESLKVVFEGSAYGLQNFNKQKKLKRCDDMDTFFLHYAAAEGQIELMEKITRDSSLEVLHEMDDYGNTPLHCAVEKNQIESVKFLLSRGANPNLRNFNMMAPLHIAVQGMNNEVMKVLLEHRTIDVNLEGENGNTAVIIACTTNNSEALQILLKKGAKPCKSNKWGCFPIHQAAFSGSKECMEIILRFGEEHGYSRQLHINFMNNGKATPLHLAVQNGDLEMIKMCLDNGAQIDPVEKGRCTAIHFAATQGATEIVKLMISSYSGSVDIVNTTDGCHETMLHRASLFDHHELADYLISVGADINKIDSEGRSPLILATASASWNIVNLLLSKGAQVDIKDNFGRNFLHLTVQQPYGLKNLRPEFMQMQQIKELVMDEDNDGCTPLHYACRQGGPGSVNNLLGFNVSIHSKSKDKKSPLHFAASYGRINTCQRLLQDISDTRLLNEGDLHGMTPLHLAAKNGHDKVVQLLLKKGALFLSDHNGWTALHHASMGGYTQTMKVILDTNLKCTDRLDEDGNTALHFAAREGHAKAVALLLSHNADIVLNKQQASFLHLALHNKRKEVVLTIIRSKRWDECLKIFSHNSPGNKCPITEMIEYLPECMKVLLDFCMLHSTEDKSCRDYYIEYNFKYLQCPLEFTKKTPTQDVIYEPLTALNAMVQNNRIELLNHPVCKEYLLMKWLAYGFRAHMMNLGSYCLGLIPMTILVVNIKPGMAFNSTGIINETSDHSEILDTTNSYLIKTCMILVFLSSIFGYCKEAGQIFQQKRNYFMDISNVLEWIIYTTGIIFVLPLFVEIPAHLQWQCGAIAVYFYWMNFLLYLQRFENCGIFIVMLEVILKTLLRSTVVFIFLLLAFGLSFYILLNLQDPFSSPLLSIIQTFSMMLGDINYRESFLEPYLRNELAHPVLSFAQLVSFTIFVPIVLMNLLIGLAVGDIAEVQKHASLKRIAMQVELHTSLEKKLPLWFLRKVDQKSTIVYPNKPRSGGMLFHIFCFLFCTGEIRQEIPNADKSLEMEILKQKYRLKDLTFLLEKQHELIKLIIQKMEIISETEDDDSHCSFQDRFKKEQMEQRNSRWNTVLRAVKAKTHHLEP
Voltage-gated inwardly rectifying potassium channel KCNH2, sequence (Q12809 whole entry): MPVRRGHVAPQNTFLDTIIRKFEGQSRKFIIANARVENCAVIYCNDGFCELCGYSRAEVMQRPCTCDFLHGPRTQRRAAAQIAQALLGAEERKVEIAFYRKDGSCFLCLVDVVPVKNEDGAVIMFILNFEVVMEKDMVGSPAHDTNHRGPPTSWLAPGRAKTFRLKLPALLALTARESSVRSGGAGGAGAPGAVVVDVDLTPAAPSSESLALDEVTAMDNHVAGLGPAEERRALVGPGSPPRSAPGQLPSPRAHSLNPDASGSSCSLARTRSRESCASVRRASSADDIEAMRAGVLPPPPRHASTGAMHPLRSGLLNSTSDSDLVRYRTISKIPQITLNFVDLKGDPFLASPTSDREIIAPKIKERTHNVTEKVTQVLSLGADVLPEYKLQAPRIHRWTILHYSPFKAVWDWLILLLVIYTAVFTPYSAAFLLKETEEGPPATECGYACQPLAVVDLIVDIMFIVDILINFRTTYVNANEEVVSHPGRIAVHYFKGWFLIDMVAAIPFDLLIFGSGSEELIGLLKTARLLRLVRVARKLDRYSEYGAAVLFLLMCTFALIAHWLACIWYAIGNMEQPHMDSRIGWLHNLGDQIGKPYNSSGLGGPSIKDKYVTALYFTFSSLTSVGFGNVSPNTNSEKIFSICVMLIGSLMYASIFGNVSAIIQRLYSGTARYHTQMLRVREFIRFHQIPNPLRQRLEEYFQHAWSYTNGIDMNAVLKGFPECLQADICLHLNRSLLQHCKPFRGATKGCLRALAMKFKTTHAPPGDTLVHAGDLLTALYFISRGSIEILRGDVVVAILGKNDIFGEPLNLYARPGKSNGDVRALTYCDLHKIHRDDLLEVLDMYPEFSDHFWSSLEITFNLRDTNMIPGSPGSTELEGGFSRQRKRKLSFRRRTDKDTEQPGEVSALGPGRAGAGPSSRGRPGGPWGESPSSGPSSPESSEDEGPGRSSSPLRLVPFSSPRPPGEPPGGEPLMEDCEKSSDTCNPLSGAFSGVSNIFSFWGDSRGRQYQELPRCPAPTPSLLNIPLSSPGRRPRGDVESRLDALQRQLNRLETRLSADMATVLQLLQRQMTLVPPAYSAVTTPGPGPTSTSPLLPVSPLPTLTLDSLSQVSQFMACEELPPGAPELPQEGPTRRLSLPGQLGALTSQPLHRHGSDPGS

Row | Papp [1] | IC50 [2] | chromatographic logD [3] | Activity [4] | Activity [5] | inhibition (INH) [6] | Activity [7] | Activity [8] | Activity [10] | Activity [11] | Activity [12] | Activity [13] | Compound | inhibition (INH) [9] | Activity [14]
1 | 38.5 ×10⁻⁶ cm/s | 2 nM | 4 | – | – | – | – | – | – | – | – | – | CC(C)(O)c1cnc(N2C[C@@]3(CCC[C@](C)(Cn4cnc5ccc(C#N)cc54)C3)OC2=O)cn1 [GSK2798745] | – | –
2 | 3.2 ×10⁻⁶ cm/s | 56 nM | 2.6 | inactive | inactive | Not Active | inactive | inactive | inactive | inactive | inactive | inactive | CC(C)(O)c1cnc(N2C[C@@]3(CC[C@@H](O)[C@](C)(Cn4cnc5ccc(C#N)cc54)C3)OC2=O)cn1 | Not Active | inactive
